Laboratory results reported in US10975056B2 (GlaxoSmithKline Intellectual Property Development Limited, priority 2016, dated 2021).
Structures can show the parent of a compound that is named as a salt.

Experiments:
DNMT1 = DNMT1 (Homo sapiens, UniProt P26358); assay: DNMT1 biochemical activity, breaklight assay and/or SPA assay; details: binned activity in either the breaklight or the SPA assay; for IC50: read-out: DNMT1 BioChemical (pIC50 category) (converted)
[1] = system: erythroid progenitor cells (EPCs); assay: Fetal hemoglobin (HbF) ELISA in day 7 erythroid progenitor cells; type: cell-based, human; details: Homo sapiens, Erythroid progenitor cell, HbF ELISA, day 7 EPCs, 5 days; read-out: EPC ELISA (pEC50 category) (converted);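 note: for fetal hemoglobin induction normalized to vehicle-treated cells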
In short: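 CD34+-derived EPCs, 1,000 cells/well, rhEPO 3 U/mL; Compound A 22-pt series, […]; 5 d, 37° C, 5% CO2. Freeze-thaw lysis, anti-HbF capture + HRP anti-HbF, TMB, OD450. Normalized to DMSO wells.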

DNMT1, sequence (P26358 whole entry, looked up): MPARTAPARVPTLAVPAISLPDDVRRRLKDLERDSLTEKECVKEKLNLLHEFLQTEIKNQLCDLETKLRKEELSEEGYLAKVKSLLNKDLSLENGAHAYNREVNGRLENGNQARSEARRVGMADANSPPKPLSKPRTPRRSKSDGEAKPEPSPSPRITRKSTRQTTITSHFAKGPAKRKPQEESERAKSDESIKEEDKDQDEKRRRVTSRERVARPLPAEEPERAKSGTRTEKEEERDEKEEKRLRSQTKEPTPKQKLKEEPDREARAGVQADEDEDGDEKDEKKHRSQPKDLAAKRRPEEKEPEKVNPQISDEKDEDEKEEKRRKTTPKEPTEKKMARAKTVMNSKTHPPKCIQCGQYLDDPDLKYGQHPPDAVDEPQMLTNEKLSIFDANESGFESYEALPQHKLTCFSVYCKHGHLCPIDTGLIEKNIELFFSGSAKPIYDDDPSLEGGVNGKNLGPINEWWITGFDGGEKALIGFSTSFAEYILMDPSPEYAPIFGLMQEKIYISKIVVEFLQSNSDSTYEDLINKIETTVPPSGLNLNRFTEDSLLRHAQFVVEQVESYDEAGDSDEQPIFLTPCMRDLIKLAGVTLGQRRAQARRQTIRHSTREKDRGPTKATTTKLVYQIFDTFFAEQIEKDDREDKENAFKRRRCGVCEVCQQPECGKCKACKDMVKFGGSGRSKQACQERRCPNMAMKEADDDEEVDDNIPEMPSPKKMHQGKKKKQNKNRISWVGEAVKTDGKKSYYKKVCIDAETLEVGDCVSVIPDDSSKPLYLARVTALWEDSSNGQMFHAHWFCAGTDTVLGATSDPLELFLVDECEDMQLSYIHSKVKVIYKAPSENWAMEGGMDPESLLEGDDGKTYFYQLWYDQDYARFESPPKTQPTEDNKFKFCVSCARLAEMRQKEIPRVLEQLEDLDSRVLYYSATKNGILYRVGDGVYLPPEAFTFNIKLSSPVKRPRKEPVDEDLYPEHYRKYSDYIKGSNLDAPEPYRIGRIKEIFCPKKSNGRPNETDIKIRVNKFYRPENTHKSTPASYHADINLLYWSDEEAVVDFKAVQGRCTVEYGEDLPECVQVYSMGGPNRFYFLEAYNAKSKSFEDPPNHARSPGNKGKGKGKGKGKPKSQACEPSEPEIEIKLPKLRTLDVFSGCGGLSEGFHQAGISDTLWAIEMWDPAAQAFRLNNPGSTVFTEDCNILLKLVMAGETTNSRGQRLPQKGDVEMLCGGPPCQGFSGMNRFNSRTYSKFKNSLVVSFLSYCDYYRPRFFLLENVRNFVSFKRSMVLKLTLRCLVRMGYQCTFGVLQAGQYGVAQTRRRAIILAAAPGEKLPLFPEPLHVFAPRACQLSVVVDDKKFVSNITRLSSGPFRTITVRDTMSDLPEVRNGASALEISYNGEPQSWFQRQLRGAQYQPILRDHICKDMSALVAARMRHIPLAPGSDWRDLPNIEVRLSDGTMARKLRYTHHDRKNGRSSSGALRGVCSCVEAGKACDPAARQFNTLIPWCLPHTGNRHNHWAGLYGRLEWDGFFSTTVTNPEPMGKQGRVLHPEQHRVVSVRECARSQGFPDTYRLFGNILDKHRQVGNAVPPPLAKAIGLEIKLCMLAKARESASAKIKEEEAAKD

| DNMT1 BioChemical (pIC50 category) (DNMT1) | EC50 [1] [µM] | IC50 (DNMT1) [µM] | SMILES |
| --- | --- | --- | --- |
| D (Category D: ≥6.5) | < 0.316 |  | CCc1c(C#N)c(SC(C(N)=O)c2ccccc2)nc(N(C)Cc2nnc[nH]2)c1C#N (stereo not shown) [Example 341, 2-((6-(((4H-1,2,4-Triazol-3-yl)methyl)(methyl)amino)-3,5-dicyano-4-ethylpyridin-2-yl)thio)-2-phenylacetamide] |
|  | > 31.6 | 0.316 to 1 | CCOc1c(C#N)c(C)nc(SC(C(N)=O)c2ccccc2)c1C#N (stereo not shown) [Example 342, 2-((3,5-Dicyano-4-ethoxy-6-methylpyridin-2-yl)thio)-2-phenylacetamide] |
| D (Category D: ≥6.5) | 0.316 to 1 |  | CCc1c(C#N)c(SCc2ccc(CC(=O)NCCO)cc2)nc(N2CCCN(C)CC2)c1C#N [Example 343, 2-(4-(((3,5-Dicyano-4-ethyl-6-(4-methyl-1,4-diazepan-1-yl)pyridin-2-yl)thio)methyl)phenyl)-N-(2-hydroxyethyl)acetamide] |
|  | 1 to 31.6 | 0.316 to 1 | CCc1c(C#N)c(SCc2ccc3[nH]ccc3c2)nc(N2CCC(N3CCCC3)CC2)c1C#N [Example 344, 2-(((1H-Indol-5-yl)methyl)thio)-4-ethyl-6-(4-(pyrrolidin-1-yl)piperidin-1-yl)pyridine-3,5-dicarbonitrile] |
| D (Category D: ≥6.5) | 1 to 31.6 |  | CCc1c(C#N)c(SCc2ccc(S(N)(=O)=O)cc2)nc(N2CCC(N)CC2)c1C#N [Example 345, 4-(((6-(4-Aminopiperidin-1-yl)-3,5-dicyano-4-ethylpyridin-2-yl)thio)methyl) benzenesulfonamide] |
|  | > 31.6 | 0.316 to 1 | CCc1c(C#N)c(SCc2ccc3c(c2)OCO3)nc(N2CCCN(C)CC2)c1C#N [Example 346, 2-((Benzo[1,3]dioxol-5-ylmethyl)thio)-4-ethyl-6-(4-methyl-1,4-diazepan-1-yl)pyridine-3,5-dicarbonitrile] |
|  | 1 to 31.6 | 0.316 to 1 | CCc1c(C#N)c(SCc2ccc3c(c2)C(OC)(OC)C(=O)N3)nc(N2CCCN(C)CC2)c1C#N [Example 347, 2-(((3,3-Dimethoxy-2-oxoindolin-5-yl)methyl)thio)-4-ethyl-6-(4-methyl-1,4-diazepan-1-yl)pyridine-3,5-dicarbonitrile] |
|  | > 31.6 | 0.316 to 1 | CCc1c(C#N)c(SCc2ccc3c(c2)C(=O)C(=O)N3)nc(N2CCCN(C)CC2)c1C#N [Example 348, 2-(((2,3-Dioxoindolin-5-yl)methyl)thio)-4-ethyl-6-(4-methyl-1,4-diazepan-1-yl)pyridine-3,5-dicarbonitrile] |
|  | 1 to 31.6 | 0.316 to 1 | CCc1c(C#N)c(SCc2ccc(CNC(C)=O)cc2)nc(N(C)Cc2nnc[nH]2)c1C#N [Example 349, N-(4-(((6-(((4H-1,2,4-Triazol-3-yl)methyl)(methyl)amino)-3,5-dicyano-4-ethylpyridin-2-yl)thio)methyl)benzyl)acetamide] |
|  | > 31.6 | 0.316 to 1 | CCc1c(C#N)c(SCc2ccc(-c3ccccn3)cc2)nc(N2CCC(N3CCCC3)CC2)c1C#N [Example 350, 4-Ethyl-2-((4-(pyridin-2-yl)benzyl)thio)-6-(4-(pyrrolidin-1-yl)piperidin-1-yl)pyridine-3,5-dicarbonitrile] |
|  | > 31.6 | 0.316 to 1 | CCc1nc(SC(C(N)=O)c2ccccc2)c(C#N)c(CC)c1C#N (stereo not shown) [Example 351] |
|  | 1 to 31.6 | 0.316 to 1 | CCc1c(C#N)c(SC(C(N)=O)c2ccccc2)nc(N(C)CCn2cnnc2)c1C#N (stereo not shown) [Example 352, 2-((6-((2-(4H-1,2,4-Triazol-4-yl)ethyl)(methyl)amino)-3,5-dicyano-4-ethylpyridin-2-yl)thio)-2-phenylacetamide] |
|  | 1 to 31.6 | 0.316 to 1 | CCc1c(C#N)c(SCc2ccc(N(C)C(C)=O)cc2)nc(N2CCCN(C)CC2)c1C#N [Example 354, N-(4-(((3,5-Dicyano-4-ethyl-6-(4-methyl-1,4-diazepan-1-yl)pyridin-2-yl)thio)methyl)phenyl)-N-methylacetamide] |
| D (Category D: ≥6.5) | < 0.316 |  | CCc1c(C#N)c(SCc2ccc(N(C)S(C)(=O)=O)cc2)nc(N2CCCN(C)CC2)c1C#N [Example 355, N-(4-(((3,5-Dicyano-4-ethyl-6-(4-methyl-1,4-diazepan-1-yl)pyridin-2-yl)thio)methyl)phenyl)-N-methylmethanesulfonamide] |
| D (Category D: ≥6.5) | 0.316 to 1 |  | CCc1c(C#N)c(SC(C(N)=O)c2ccccc2)nc(N(C)Cc2cc[nH]n2)c1C#N (stereo not shown) [Example 356, 2-((6-(((1H-Pyrazol-3-yl)methyl)(methyl)amino)-3,5-dicyano-4-ethylpyridin-2-yl)thio)-2-phenylacetamide] |
|  | > 31.6 | 0.316 to 1 | CCc1c(C#N)c(SCc2ccc(B(O)O)cc2)nc(N2CCCN(C)CC2)c1C#N [Example 357, 4-((3,5-Dicyano-4-ethyl-6-(4-methyl-1,4-diazepan-1-yl)pyridin-2-ylthio)methyl)phenylboronic acid] |
| D (Category D: ≥6.5) | > 31.6 |  | CCc1c(C#N)c(SCc2ccc(CNC(=O)CNC)cc2)nc(N2CCCN(C)CC2)c1C#N [Example 358, N-(4-(((3,5-Dicyano-4-ethyl-6-(4-methyl-1,4-diazepan-1-yl)pyridin-2-yl)thio)methyl)benzyl)-2-(methylamino)acetamide] |
|  | 1 to 31.6 | 0.316 to 1 | CCc1c(C#N)c(SC(C(N)=O)c2ccccc2)nc(N2CCc3[nH]nnc3C2)c1C#N (stereo not shown) [Example 359, 2-((3,5-Dicyano-6-(6,7-dihydro-1H-[1,2,3]triazolo[4,5-c]pyridin-5(4H)-yl)-4-ethylpyridin-2-yl)thio)-2-phenylacetamide] |
|  | 1 to 31.6 | 0.316 to 1 | CCc1c(C#N)c(SCc2ccc(N)c(F)c2)nc(N2CCCN(C)CC2)c1C#N [Example 360, 2-((4-Amino-3-fluorobenzyl)thio)-4-ethyl-6-(4-methyl-1,4-diazepan-1-yl)pyridine-3,5-dicarbonitrile] |
|  | 1 to 31.6 | 0.316 to 1 | CCc1c(C#N)c(SCc2ccc(NS(C)(=O)=O)c(F)c2)nc(N2CCCN(C)CC2)c1C#N [Example 361, N-(4-(((3,5-Dicyano-4-ethyl-6-(4-methyl-1,4-diazepan-1-yl)pyridin-2-yl)thio)methyl)-2-fluorophenyl)methanesulfonamide] |
|  | > 31.6 | 0.316 to 1 | CCc1c(C#N)c(SCc2ccc(NC(C)=O)c(F)c2)nc(N2CCCN(C)CC2)c1C#N [Example 362] |
|  | 1 to 31.6 | 0.316 to 1 | CCc1c(C#N)c(SCc2cnn(CCO)c2)nc(N2CCC(N)CC2)c1C#N [Example 363] |
| D (Category D: ≥6.5) | < 0.316 |  | CCc1c(C#N)c(SC(C(N)=O)c2ccccc2)nc(N(C)Cc2ncc[nH]2)c1C#N (stereo not shown) [Example 364, 2-((6-(((1H-Imidazol-2-yl)methyl)(methyl)amino)-3,5-dicyano-4-ethylpyridin-2-yl)thio)-2-phenylacetamide] |
|  | 1 to 31.6 | 0.316 to 1 | CCc1c(C#N)c(SC(C(N)=O)c2ccccc2)nc(N(C)Cc2cnc[nH]2)c1C#N (stereo not shown) [Example 365] |
|  | 1 to 31.6 | 0.316 to 1 | CCc1c(C#N)c(SCc2ccc(CNC(=O)CO)cc2)nc(N2CCC(O)C2)c1C#N (stereo not shown) [Example 367] |
| D (Category D: ≥6.5) | > 31.6 |  | CCc1c(C#N)c(SC(C(N)=O)c2ccc(C(N)=O)cc2)nc(N2CCCN(C)CC2)c1C#N (stereo not shown) [Example 368, 4-(2-Amino-1-((3,5-dicyano-4-ethyl-6-(4-methyl-1,4-diazepan-1-yl)pyridin-2-yl)thio)-2-oxoethyl)benzamide] |
| D (Category D: ≥6.5) | 1 to 31.6 |  | N#Cc1c(SC(C(N)=O)c2ccccc2)nc(N2CCC(O)C2)c(C#N)c1C1CC1 (stereo not shown) [Example 369, 2-((3,5-Dicyano-4-cyclopropyl-6-(3-hydroxypyrrolidin-1-yl)pyridin-2-yl)thio)-2-phenylacetamide] |
|  | 1 to 31.6 | 0.316 to 1 | CCc1c(C#N)c(SC(C(N)=O)c2ccccc2)nc(N2CCC(O)C2)c1C#N (stereo not shown) [Example 370, 2-((3,5-Dicyano-4-ethyl-6-(3-hydroxypyrrolidin-1-yl)pyridin-2-yl)thio)-2-phenylacetamide] |
|  | 1 to 31.6 | 0.316 to 1 | CCc1c(C#N)c(SCc2ccc(CNC(=O)CO)cc2)nc(N(C)CC(N)=O)c1C#N [Example 371] |
| D (Category D: ≥6.5) | 0.316 to 1 |  | C[C@@H](N)C(=O)NC1CCN(c2nc(SC(C(N)=O)c3ccccc3)c(C#N)c(C3CC3)c2C#N)CC1 (stereo partly drawn) [Example 372, (2R)-2-Amino-N-(1-(6-((2-amino-2-oxo-1-phenylethyl)thio)-3,5-dicyano-4-cyclopropylpyridin-2-yl)piperidin-4-yl)propanamide] |

| SMILES | DNMT1 BioChemical (pIC50 category) (DNMT1) | EC50 [1] [µM] | IC50 (DNMT1) [µM] |
| --- | --- | --- | --- |
| CCc1c(C#N)c(SC(C(N)=O)c2ccccc2)nc(N2CCC(NC(=O)[C@@H](C)N)CC2)c1C#N (stereo partly drawn) [Example 366, (2R)-2-Amino-N-(1-(6-((2-amino-2-oxo-1-phenylethyl)thio)-3,5-dicyano-4-ethylpyridin-2-yl)piperidin-4-yl)propanamide, Hydrochloride] | D (Category D: ≥6.5) | < 0.316 |  |
| CN(CCN)c1nc(SC(C(N)=O)c2ccccc2)c(C#N)c(C2CC2)c1C#N (stereo not shown) [Example 373, 2-((6-((2-Aminoethyl)(methyl)amino)-3,5-dicyano-4-cyclopropylpyridin-2-yl)thio)-2-phenylacetamide, Hydrochloride] | D (Category D: ≥6.5) | 0.316 to 1 |  |
